Assay results from patent publication US9862708B2, “Pyrazolone compounds and uses thereof” (Tempest Therapeutics, Inc., priority 2014, dated 2018).

Target: T1, human PPARα (Homo sapiens, UniProt Q07869)
T1 construct: host or cells: proprietary non-human mammalian cells
T1 sequence (Q07869 1-468): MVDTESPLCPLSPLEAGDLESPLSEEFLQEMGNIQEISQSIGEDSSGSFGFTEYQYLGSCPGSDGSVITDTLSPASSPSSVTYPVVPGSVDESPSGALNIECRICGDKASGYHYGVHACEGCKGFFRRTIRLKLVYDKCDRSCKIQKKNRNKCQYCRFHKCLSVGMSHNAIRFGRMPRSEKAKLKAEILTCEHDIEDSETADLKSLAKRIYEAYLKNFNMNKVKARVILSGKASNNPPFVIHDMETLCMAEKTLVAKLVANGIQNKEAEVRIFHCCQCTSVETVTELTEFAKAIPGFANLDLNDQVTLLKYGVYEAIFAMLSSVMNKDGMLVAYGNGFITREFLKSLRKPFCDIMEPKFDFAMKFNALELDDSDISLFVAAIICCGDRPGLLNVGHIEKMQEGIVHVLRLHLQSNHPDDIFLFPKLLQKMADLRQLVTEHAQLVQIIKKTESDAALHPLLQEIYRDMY
Test: Human PPARα Reporter Assay (luciferase, Indigo Biosciences)
Format: cell-based
Conditions: antagonism; luciferase reporter cells, overnight incubation; read-out: PPARα IC50
Procedure: Human PPARα Reporter Assay
The screening of test compounds for agonist or antagonist activities against human PPARα receptors was performed using a commercial kit, Human PPARα Reporter Assay System (Indigo Biosciences, Cat. #IB00111).
This nuclear receptor assay system utilizes proprietary non-human mammalian cells engineered to provide constitutive, high-level expression of Human PPARα. Because these cells incorporate a PPARα-responsive luciferase reporter gene, quantifying expressed luciferase activity provides a sensitive surrogate measure of PPARα activity in the treated cells. The primary application of this reporter assay system is in the screening of test samples to quantify any functional activity, either agonist or antagonist, that they may exert against human PPARα.
Briefly, reporter cells are dispensed into wells of the assay plate and then immediately dosed with test compounds. Following an overnight incubation, the treatment media is discarded and Luciferase Detection Reagent (LDR) is added. The intensity of light emission from the ensuing luciferase reaction provides a sensitive measure that is directly proportional to the relative level of PPARα activation in the reporter cells.

IC50	SMILES
840 nM	CC(C)(CN)Oc1ccc(CCCC2=NN(c3ccc(C(F)(F)F)cc3)C(=O)C23CCCC3)cc1 [Example 45, 4-(3-(4-((1-amino-2-methylpropan-2-yl)oxy)phenyl)propyl)-2-(4-(trifluoromethyl)phenyl)-2,3-diazaspiro[4,4]non-3-en-1-one]
69 nM	CC(C)(Oc1ccc(CCCC2=NN(c3ccc(OC(F)(F)F)cc3)C(=O)C23CCCC3)cc1)C(=O)NC1CC1 [Example 29, N-cyclopropyl-2-methyl-2-(4-(3-(4-oxo-3-(4-(trifluoromethoxy)phenyl)-2,3-diazaspiro[4,4]non-1-en-1-yl)propyl)phenoxy)propanamide]
580 nM	CC(C)(CNC(=O)c1ccccc1)Oc1ccc(CCCC2=NN(c3ccc(C(F)(F)F)cc3)C(=O)C23CCCC3)cc1 [Example 47, N-(2-methyl-2-(4-(3-(4-oxo-3-(4-(trifluoromethyl)phenyl)-2,3-diazaspiro[4,4]non-1-en-1-yl)propyl)phenoxy)propyl)benzamide]
110 nM	CCOc1ccc(-c2ccc(CCCC3=NN(Cc4ccc(C(C)(C)C)cc4)C(=O)C3(C)C)cc2)cc1CC(=O)O [Example 55, 2-(4′-(3-(1-(4-(tert-butyl)benzyl)-4,4-dimethyl-5-oxo-4,5-dihydro-1H-pyrazol-3-yl)propyl)-4-ethoxy-[1,1′-biphenyl]-3-yl)acetic acid]
3.1 nM	Cc1ccc(N2N=C(CCCc3ccc(OC(C)(C)C(=O)O)cc3)C3(CCCC3)C2=O)cc1C(F)(F)F [Example 39, 2-methyl-2-(4-(3-(3-(4-methyl-3-(trifluoromethyl)phenyl)-4-oxo-2,3-diazaspiro[4,4]non-1-en-1-yl)propyl)phenoxy)propanoic acid]
610 nM	CC(C)(Oc1ccc(CCCC2=NN(c3ccc(C(F)(F)F)cc3)C(=O)C2(C)C)cc1)C(=O)C(F)(F)F [Example 44, 4,4-dimethyl-3-(3-(4-((4,4,4-trifluoro-2-methyl-3-oxobutan-2-yl)oxy)phenyl)propyl)-1-(4-(trifluoromethyl)phenyl)-1H-pyrazol-5(4H)-one]
960 nM	CC(C)(Oc1ccc(CCCC2=NN(Cc3ccc(C(F)(F)F)cc3)C(=O)C23CCCC3)cc1)C(=O)O [Example 34, 2-methyl-2-(4-(3-(4-oxo-3-(4-(trifluoromethyl)benzyl)-2,3-diazaspiro[4,4]non-1-en-1-yl)propyl)phenoxy)propanoic acid]
54 nM	CC1(C)C(=O)N(c2ccc(C(F)(F)F)cc2)N=C1CCCc1ccc(OCC(=O)O)cc1 [Example 49, 2-(4-(3-(4,4-dimethyl-5-oxo-1-(4-(trifluoromethyl)phenyl)-4,5-dihydro-1H-pyrazol-3-yl)propyl)phenoxy)acetic acid]
1200 nM	CC1(C)C(=O)N(c2ccc(C(F)(F)F)cc2)N=C1CCCc1ccc(OC(C)(C)C(O)C(F)(F)F)cc1 (stereo not drawn) [Example 43, 4,4-dimethyl-3-(3-(4-((4,4,4-trifluoro-3-hydroxy-2-methylbutan-2-yl)oxy)phenyl)propyl)-1-(4-(trifluoromethyl)phenyl)-1H-pyrazol-5(4H)-one]

Further lines, the compound ahead of its results:

SMILES	IC50
CC(C)(Oc1ccc(CCCC2=NN(Cc3ccc(C(C)(C)C)cc3)C(=O)C2(C)C)cc1)C(=O)NCc1ccccc1 [Example 3, N-benzyl-2-(4-(3-(1-(4-(tert-butyl)benzyl)-4,4-dimethyl-5-oxo-4,5-dihydro-1H-pyrazol-3-yl)propyl)phenoxy)-2-methylpropanamide]	160 nM
CC(C)(Oc1ccc(CCCC2=NN(Cc3ccc(C(C)(C)C)cc3)C(=O)C2(C)C)cc1)C(=O)O [Example 1, 2-(4-(3-(1-(4-(tert-butyl)benzyl)-4,4-dimethyl-5-oxo-4,5-dihydro-1H-pyrazol-3-yl)propyl)phenoxy)-2-methylpropanoic acid]	15 nM
CC(C)(Oc1ccc(CCCC2=NN(Cc3ccc(C(F)(F)F)cc3)C(=O)C2(C)C)cc1)C(=O)O [Example 8, 2-(4-(3-(4,4-dimethyl-5-oxo-1-(4-(trifluoromethyl)benzyl)-4,5-dihydro-1H-pyrazol-3-yl)propyl)phenoxy)-2-methylpropanoic acid]	62 nM
CC(C)(Oc1ccc(CCCC2=NN(c3ccc(C(F)(F)F)cc3)C(=O)C23CCCC3)cc1)C(=O)NC1CC1 [Example 26, N-cyclopropyl-2-methyl-2-(4-(3-(4-oxo-3-(4-(trifluoromethyl)phenyl)-2,3-diazaspiro[4,4]non-1-en-1-yl)propyl)phenoxy)propanamide]	110 nM
CC(C)(Oc1ccc(CCCC2=NN(c3cccc(C(F)(F)F)c3)C(=O)C2(C)C)cc1)C(=O)O [Example 20, 2-(4-(3-(4,4-dimethyl-5-oxo-1-(3-(trifluoromethyl)phenyl)-4,5-dihydro-1H-pyrazol-3-yl)propyl)phenoxy)-2-methylpropanoic acid]	19 nM
CC1(C)C(=O)N(c2cccc(C(F)(F)F)c2)N=C1CCCc1ccc(OC(C)(C(=O)O)c2ccccc2)cc1 (single isomer, unassigned) [54-enantiomer#1, 2-(4-(3-(4,4-dimethyl-5-oxo-1-(3-(trifluoromethyl)phenyl)-4,5-dihydro-1H-pyrazol-3-yl)propyl)phenoxy)-2-phenylpropanoic acid]	640 nM
CC(C)(Oc1ccc(CCCC2=NN(Cc3ccc(C4=CCCCC4)cc3)C(=O)C2(C)C)cc1)C(=O)O [Example 15, 2-(4-(3-(4,4-dimethyl-5-oxo-1-((2′,3′,4′,5′-tetrahydro-[1,1′-biphenyl]-4-yl)methyl)-4,5-dihydro-1H-pyrazol-3-yl)propyl)phenoxy)-2-methylpropanoic acid]	130 nM
CC(C)(Oc1ccc(CCCC2=NN(Cc3ccc(Br)cc3)C(=O)C2(C)C)cc1)C(=O)O [Example 13, 2-(4-(3-(1-(4-bromobenzyl)-4,4-dimethyl-5-oxo-4,5-dihydro-1H-pyrazol-3-yl)propyl)phenoxy)-2-methylpropanoic acid]	360 nM
CC(C)(Oc1ccc(CCCC2=NN(c3ccc(OC(F)(F)F)cc3)C(=O)C23CCCC3)cc1)C(=O)O [Example 28, 2-methyl-2-(4-(3-(4-oxo-3-(4-(trifluoromethoxy)phenyl)-2,3-diazaspiro[4,4]non-1-en-1-yl)propyl)phenoxy)propanoic acid]	0.97 nM
CC(C)(Oc1ccc(CCCC2=NN(c3ccc(C(F)(F)F)cn3)C(=O)C2(C)C)cc1)C(=O)O [Example 21, 2-(4-(3-(4,4-dimethyl-5-oxo-1-(5-(trifluoromethyl)pyridin-2-yl)-4,5-dihydro-1H-pyrazol-3-yl)propyl)phenoxy)-2-methylpropanoic acid]	35 nM
CC(C)(Oc1ccc(CCCC2=NN(c3ccc(C(F)(F)F)cc3)C(=O)C23CCCC3)cc1)C(=O)NS(=O)(=O)c1ccccc1 [Example 25, 2-methyl-2-(4-(3-(4-oxo-3-(4-(trifluoromethyl)phenyl)-2,3-diazaspiro[4,4]non-1-en-1-yl)propyl)phenoxy)-N-(phenylsulfonyl)propanamide]	1 nM
CC(C)(Oc1ccc(CCCC2=NN(c3ccc(C(C)(C)C)cc3)C(=O)C2(C)C)cc1)C(=O)O [Example 11, 2-(4-(3-(1-(4-(tert-butyl)phenyl)-4,4-dimethyl-5-oxo-4,5-dihydro-1H-pyrazol-3-yl)propyl)phenoxy)-2-methylpropanoic acid]	8.1 nM
CC(C)(Oc1ccc(CCCC2=NN(Cc3ccc(C(C)(C)C)cc3)C(=O)C2(C)C)cc1)C(=O)NS(=O)(=O)c1ccccc1 [Example 2, 2-(4-(3-(1-(4-(tert-butyl)benzyl)-4,4-dimethyl-5-oxo-4,5-dihydro-1H-pyrazol-3-yl)propyl)phenoxy)-2-methyl-N-(phenylsulfonyl)propanamide]	2.1 nM
CC(C)(Oc1ccc(CCCC2=NN(c3ccc(C(F)(F)F)cc3)C(=O)C23CCCC3)cc1)C(=O)NCC(F)(F)F [Example 27, 2-methyl-2-(4-(3-(4-oxo-3-(4-(trifluoromethyl)phenyl)-2,3-diazaspiro[4,4]non-1-en-1-yl)propyl)phenoxy)-N-(2,2,2-trifluoroethyl)propanamide]	410 nM
CC(C)(Oc1ccc(CCCC2=NN(Cc3ccc(C4CC4)cc3)C(=O)C2(C)C)cc1)C(=O)O [Example 16, 2-(4-(3-(1-(4-cyclopropylbenzyl)-4,4-dimethyl-5-oxo-4,5-dihydro-1H-pyrazol-3-yl)propyl)phenoxy)-2-methylpropanoic acid]	140 nM
